Source: patent US4061777A, “Vasodilatory terpeno-phenoxyalkylamines” (Mar-Pha, Societe d'Etudeet d'Exploitation de Marques Mar-Pha, priority 1974, dated 1977)
≈ marks a conversion by molar mass, not a printed value.

How the values were obtained:
Staphylococcus aureus = assay: Bacteriostatic activity by the method of streaks in gelose media (minimum inhibitory concentration), Staphylococcus aureus; type: cell-based; settings: Staphylococcus aureus (gram +ve)
Procedure: (§1) The bacteriostatic activity of the products according to the invention have been evaluated by the method of streaks in gelose media. This method comprises making increasing dilutions of the product to be tested, in nutritive gels poured in a Petri dish. The bacteria to be studied are introduced onto the geloses in parallel streaks by means of a platinum loop which has been immersed in a 24 hour old culture of the bacteria. […] The activity of the compounds has been studied vis a vis gram + ve (Staphylococcus aureus) and gram - ve (Escherichia coli) bacteria.

Escherichia coli = assay: Bacteriostatic activity by the method of streaks in gelose media (minimum inhibitory concentration), Escherichia coli; type: cell-based; settings: Escherichia coli (gram -ve)
Procedure: as §1

[1] = system: heart taken from a rabbit; assay: Coronaro-dilatory effects in vitro on isolated rabbit heart (Langendorff's technique); settings: for Coronary output, Duration in mins.: duration of the variation in coronary output
Procedure: They were measured in vitro on a heart taken from a rabbit, according to Langendorff's technique. The terpenophenoxy alkylamines according to the invention are administered to the aortic canal at a constant volume of 1 cm^3 for 1 minute.
The following table indicates the increase in the coronary output and the duration of this variation, depending on the doses.

[2] = Oryctolagus cuniculus, 1 min, dose 3 μg/cm^3, aortic canal, 1 cm^3 for 1 minute, increase (+), read-out: Coronary output, Variations in %
[3] = Oryctolagus cuniculus, 1 min, dose 10 μg/cm^3, aortic canal, 1 cm^3 for 1 minute, increase (+), read-out: Coronary output, Variations in %
[4] = Oryctolagus cuniculus, 1 min, dose 1 μg/cm^3, aortic canal, 1 cm^3 for 1 minute, increase (+), read-out: Coronary output, Variations in %

Structure (SMILES)	MIC (Staphylococcus aureus) [µg/mL]	MIC (Escherichia coli) [µg/mL]	activation at 100 µg/mL ([1]; Oryctolagus cuniculus, 1 min, dose 100 μg/cm^3, aortic canal, 1 cm^3 for 1 minute, increase (+), read-out: Coronary output, Variations in %) [%]	Coronary output, Duration in mins. ([1]; dose 100 μg/cm^3) [min]	activation at 3 µg/mL [1, 2] [%]	activation at 10 µg/mL [1, 3] [%]	Coronary output, Duration in mins. ([1]; dose 3 μg/cm^3) [min]	Coronary output, Duration in mins. ([1]; dose 10 μg/cm^3) [min]	activation at 1 µg/mL [1, 4] [%]	Coronary output, Duration in mins. ([1]; dose 1 μg/cm^3) [min]
Cc1cc(OCC(O)CNC(C)C)c(C2CC3CCC2(C)C3(C)C)cc1C (centres unmarked) [Example 11, 1-isopropylamino 3-(2'-isobornyl-4',5'-dimethylphenoxy) propan-2-ol]					72	210	5	12		
Cc1cc(OCCN)c(C2CC3CCC2(C)C3(C)C)cc1C (centres unmarked) [Example 1, 2-(2'-isobornyl-4',5'-dimethylphenoxy) ethylamine]	5 (≈ 16.6 µM)	7.5 (≈ 24.9 µM)			37	55	5	5		
Cc1cc(OCCN)c(C2CC3CCC2(C)C3(C)C)cc1Br (centres unmarked) [Example 2, 2-(2'-isobornyl-4'-bromo-5'-methylphenoxy) ethylamine]	5 (≈ 13.6 µM)	10 (≈ 27.3 µM)			39		> 15		23	> 15
Cc1cc(OCC(O)CN)c(C2CC3CCC2(C)C3(C)C)cc1C (centres unmarked) [Example 4, 3-(2'-isobornyl-4,5'-dimethylphenoxy)-1-amino propan-2-ol]	5 (≈ 15.1 µM)	5 (≈ 15.1 µM)			127	140	15	12		
Cc1cc(OCC(O)CNC(C)C)c(C2CC3CC2C(C)C3(C)C)cc1C (centres unmarked) [Example 6, 3-(2'-isocamphyl-4',5'-dimethylphenoxy)-1-isopropylamino propan-2-ol]	5 (≈ 13.4 µM)				36	66	15	9		
CC1(C)C2CCC1(C)C(c1ccccc1OCC(O)CN)C2 (centres unmarked) [Example 8, 1-Amino 3-(2'-isobornylphenoxy) propan-2-ol]	20 (≈ 65.9 µM)	7.5 (≈ 24.7 µM)			24	63	6	12		
Cc1cc(OCC(O)CN)c(C2CC3CC2C(C)C3(C)C)cc1C (centres unmarked) [Example 5, 3-(2'-isocamphyl-4',5'-dimethylphenoxy)-1-amino propan-2-ol]	5 (≈ 15.1 µM)	5 (≈ 15.1 µM)			70		> 15		13	2
CC(C)NCC(O)COc1ccccc1C1CC2CCC1(C)C2(C)C (centres unmarked) [Example 9, 1-Isopropylamino 3-(2'-isobornylphenoxy) propan-2-ol]					95	102	4	4		

Further compounds by falling MIC (Staphylococcus aureus), results first:

MIC (Staphylococcus aureus) [µg/mL]	MIC (Escherichia coli) [µg/mL]	Structure (SMILES)	activation at 100 µg/mL ([1]; Oryctolagus cuniculus, 1 min, dose 100 μg/cm^3, aortic canal, 1 cm^3 for 1 minute, increase (+), read-out: Coronary output, Variations in %) [%]	Coronary output, Duration in mins. ([1]; dose 100 μg/cm^3) [min]	activation at 3 µg/mL [1, 2] [%]	activation at 10 µg/mL [1, 3] [%]	Coronary output, Duration in mins. ([1]; dose 3 μg/cm^3) [min]	Coronary output, Duration in mins. ([1]; dose 10 μg/cm^3) [min]	activation at 1 µg/mL [1, 4] [%]	Coronary output, Duration in mins. ([1]; dose 1 μg/cm^3) [min]
10 (≈ 28.9 µM)	30 (≈ 86.8 µM)	Cc1cc(OCCNCCO)c(C2CC3CCC2(C)C3(C)C)cc1C (centres unmarked) [Example 7, N-hydroxyethyl-2-(2'-isobornyl-4',5'-dimethylphenoxy) ethylamine]			51	109	> 15	> 15		
7.5 (≈ 23.6 µM)	5 (≈ 15.7 µM)	Cc1ccc(OCC(O)CN)c(C2CC3CC2C(C)C3(C)C)c1 (centres unmarked) [Example 12, 1-amino 3-(2'-isocamphyl-4'-methylphenoxy) propan-2-ol]	31	4						
7.5 (≈ 23.3 µM)	7.5 (≈ 23.3 µM)	Cc1cc(OCCN)c(C2CC3CCC2(C)C3(C)C)cc1Cl (centres unmarked) [Example 10, 2-(2-isobornyl-4-chloro-5-methylphenoxy) ethylamine]			60		> 15		34	> 15
7.5 (≈ 21.3 µM)	5 (≈ 14.2 µM)	CC1(C)C2CCC1(C)C(c1cc(Br)ccc1OCCN)C2 (centres unmarked) [Example 3, 2-(2'-isobornyl-4'-bromophenoxy) ethylamine]			36		> 15		4	3
